In ChEMBL document CHEMBL1143403, “Location of persisting mycobacteria in a Guinea pig model of tuberculosis revealed by r207910” (2007):

Assays:
[1] = system: Mycobacterium tuberculosis; assay type: functional; conditions: dose 5 mg/kg; route oral
[2] = system: Mycobacterium tuberculosis; assay type: functional, Spleen; conditions: dose 10 mg/kg; route oral
[3] = system: Mycobacterium tuberculosis; assay type: functional, Spleen; conditions: dose 5 mg/kg; route oral
[4] = system: Mycobacterium tuberculosis; assay type: functional; conditions: dose 10 mg/kg; route oral
[5] = system: Mycobacterium tuberculosis; assay type: functional, Spleen; conditions: dose 15 mg/kg; route oral
[6] = system: Mycobacterium tuberculosis; assay type: functional; conditions: dose 15 mg/kg; route oral

## COc1nc2ccc(Br)cc2cc1[C@@H](c1ccccc1)[C@](O)(CCN(C)C)c1cccc(F)c1
[1]
  CFU: 358
  log10cfu: 2.27
[2]
  log10cfu: 0.46
[3]
  log10cfu: 0.54
[4]
  CFU: 251
  log10cfu: 1.29
[5]
  log10cfu: 0.98
[6]
  CFU: 46
  log10cfu: 0.93
